Tested on: Salmonella ATCC14028 in a special dormant state
Experiment: Resuscitation ("awakening") of VBNC Salmonella by nutrient added alone, pour-plate colony growth
Assay type: cell-based
Details: nutrient not encapsulated, more than 3 g egg yolk lecithin or more than 0.22 g cholesterol per 20 mL bacterial solution, static incubation 1 d to 7 d
Protocol: In the examples of the present disclosure, induced preparation of Salmonella ATCC14028 in a special dormant state: single colonies of Salmonella ATCC14028 are inoculated in a liquid medium and cultivated at 37° C. and 180 rpm to a late logarithmic stage; a resulting bacterial solution is centrifuged at 6,000 rpm for 10 min, and a resulting supernatant is discarded; a resulting precipitate is washed twice with phosphate buffered saline (PBS) and then re-dissolved with PBS for later use, and a resulting bacterial solution is serially diluted to a concentration of 1*10^8 CFU/mL; 18 mL of PBS is added to a 50 mL centrifuge tube, the centrifuge tube is heated in a 60±2° C. water bath, and after the temperature in the centrifuge tube reaches 60±2° C., 2 mL of a 1*10^8 CFU/mL bacterial solution is added to the centrifuge tube; a diluted bacterial solution is magnetically stirred and heated for 20 min, and then immediately taken out and placed in ice for later use; a cooled bacterial solution is centrifuged at 7,000 rpm for 10 min, a resulting supernatant is discarded, and PBS is added to 20 mL for re-dissolution; and the treated bacterial solution is subjected to staining with a Live/Dead BacLight kit, and then the number of viable bacteria in the treated bacterial solution is detected by flow cytometry. […]

## CC(C)CCC[C@@H](C)[C@H]1CC[C@H]2[C@@H]3CC=C4C[C@@H](O)CC[C@]4(C)[C@H]3CC[C@]12C [cholesterol]
  "awakening" of bacteria in a special dormant state (growth of colonies): can “awaken” bacteria in a special dormant state

From patent US20250188404A1, “CULTURE CAPSULE AND METHOD FOR RES[…] IN VIABLE BUT NON-CULTURABLE (VBNC) STATE” (Innovation Center of Yangtze River Delta, ZJU, priority 2023, published 2025)
